The supplement of paper PMC8967900

Key:
Test in all cases: selective drug sensitivity score (sDSS, relative to normal bone marrow) (sDSS (score)); higher = more potent and effective on the cell line relative to normal bone marrow cells
Settings in all cases: 72 h
TANOUE = test system: TANOUE
COG-LL-317 = test system: COG-LL-317
REH = test system: REH
COG-LL-402h = test system: COG-LL-402h
TMD5 = test system: TMD5
KASUMI-2 = test system: KASUMI-2
COG-LL-319h = test system: COG-LL-319h
MHH-CALL-4 = test system: MHH-CALL-4
MOLT-14 = test system: MOLT-14
SUP-B15 = test system: SUP-B15
HAL-01 = test system: HAL-01
PF-382 = test system: PF-382
KASUMI-9 = test system: KASUMI-9
NALM-16 = test system: NALM-16
ALL-PO = test system: ALL-PO
P12-ICHIKAWA = test system: P12-ICHIKAWA
MOLT-4 = test system: MOLT-4
COG-LL-332h = test system: COG-LL-332h
PEER = test system: PEER
NALM-6 = test system: NALM-6
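Further: ALL cell lines in 384-well plates, five doses spanning 10,000-fold, each plate scaled between vehicle and 100 µmol/L benzalkonium chloride controls, sDSS an adapted area-under-curve metric.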

| SMILES | selective drug sensitivity score (TANOUE) | selective drug sensitivity score (COG-LL-317) | selective drug sensitivity score (REH) | selective drug sensitivity score (COG-LL-402h) | selective drug sensitivity score (TMD5) | selective drug sensitivity score (KASUMI-2) | selective drug sensitivity score (COG-LL-319h) | selective drug sensitivity score (MHH-CALL-4) | selective drug sensitivity score (MOLT-14) | selective drug sensitivity score (SUP-B15) | selective drug sensitivity score (HAL-01) | selective drug sensitivity score (PF-382) | selective drug sensitivity score (KASUMI-9) | selective drug sensitivity score (NALM-16) | selective drug sensitivity score (ALL-PO) | selective drug sensitivity score (P12-ICHIKAWA) | selective drug sensitivity score (MOLT-4) | selective drug sensitivity score (COG-LL-332h) | selective drug sensitivity score (PEER) | selective drug sensitivity score (NALM-6) |
| --- | --- | --- | --- | --- | --- | --- | --- | --- | --- | --- | --- | --- | --- | --- | --- | --- | --- | --- | --- | --- |
| O=C(Nc1cc(Oc2cc(F)c(NC(=O)C3(C(=O)Nc4ccc(F)cc4)CC3)cc2F)ccn1)C1CC1 [Altiratinib] (top concentration 10000 nM) | -2.56 | -0.46 | 3.84 | -2.16 | 3.24 | -0.66 | 2.84 | 2.84 | -0.36 | 6.64 | 1.14 | 0.64 | -0.16 | -2.56 | 8.94 | 0.34 | 0.24 | 3.84 | 9.24 | 1.34 |
| CN1CC[C@H](c2c(O)cc(O)c3c(=O)cc(-c4ccccc4Cl)oc23)[C@H](O)C1 [Alvocidib] (top concentration 10000 nM) | -11 | 1.7 | -2 | -2.1 | -5.7 | -2.8 | -2.7 | -3.8 | 1.3 | 0.1 | -3.5 | -3.3 | -0.7 | -3.6 | -6.7 | -2.1 | -2.5 | -0.3 | -2.1 | -1.2 |
| CC(C)c1c(C(=O)Nc2ccccc2)c(-c2ccccc2)c(-c2ccc(F)cc2)n1CC[C@@H](O)C[C@@H](O)CC(=O)O [Atorvastatin] (top concentration 10000 nM) | -3.7 | 8 | 1 | -1.8 | -1.6 | -3.7 | -1 | 0.1 | -0.9 | 0.8 | -1.9 | -1 | -3.7 | -3.7 | 1.1 | 0.7 | -2.1 | 1.2 | 2 | 1.4 |
| Nc1ncn([C@@H]2O[C@H](CO)[C@@H](O)[C@H]2O)c(=O)n1 [Azacitidine] (top concentration 10000 nM) | -0.86 | 7.74 | 9.44 | 1.74 | -2.26 | -0.36 | 7.84 | 6.14 | 9.04 | 11.6 | 3.84 | 4.44 | 5.14 | 1.84 | 6.94 | 3.74 | 4.94 | 3.64 | 6.64 | 3.34 |
| Cc1cc(-c2nc(-c3ccc(OC(F)(F)F)cc3)no2)nn1Cc1ccnc(N2CCN(C3CC3)CC2)c1 [BAY_87-2243] (top concentration 1000 nM) | 25.2 | -0.96 | 17.1 | -3.16 | -1.16 | -8.66 | 2.54 | 11.9 | 8.64 | 14.1 | -0.66 | 16.9 | 5.24 | 4.24 | 5.54 | 23.9 | 25.1 | 5.54 | 27.4 | 10 |
| O=C(Nc1cccc(Nc2ncc(Br)c(NCCc3cnc[nH]3)n2)c1)N1CCCC1 [BX-912] (top concentration 10000 nM) | -7.04 | 9.46 | 7.96 | 6.16 | 2.06 | 5.86 | 12.7 | 3.06 | 9.36 | 11.9 | -3.64 | 5.06 | 10.5 | -0.14 | 14 | 10.2 | 6.56 | 7.56 | 10.6 | 6.46 |
| C=C(c1ccc(C(=O)O)cc1)c1cc2c(cc1C)C(C)(C)CCC2(C)C [Bexarotene] (top concentration 10000 nM) | -5.3 | -5.1 | -3.8 | -5.3 | 0.1 | -5.3 | -5.3 | 3.3 | 0.4 | -4.8 | -0.9 | -4.6 | -3.4 | -4.1 | 3.7 | -0.5 | 2.2 | -1.7 | -3.8 | -3.4 |
| Cn1cnc2c(F)c(Nc3ccc(Br)cc3F)c(C(=O)NOCCO)cc21 [Binimetinib] (top concentration 1000 nM) | -0.82 | -2.12 | 4.48 | 3.88 | 2.38 | -2.22 | 2.98 | 4.98 | 4.38 | 11.2 | 8.28 | -1.82 | -0.92 | -0.12 | 3.08 | -0.42 | -2.02 | -2.22 | 0.58 | 5.78 |
| COc1cc(N2CCC(N3CCN(C)CC3)CC2)ccc1Nc1ncc(Cl)c(Nc2ccccc2P(C)(C)=O)n1 [Brigatinib] (top concentration 1000 nM) | -3.34 | -2.34 | -3.34 | -2.04 | -2.04 | -3.24 | 3.26 | -3.34 | 3.16 | -3.34 | 6.06 | -2.84 | 3.56 | -3.14 | 4.16 | -3.34 | 0.36 | -3.34 | -3.34 | 0.26 |
| CC1=NN(c2ccc(C(=O)O)cc2)C(=O)C1=Cc1ccc(-c2cc(C)c(C)cc2[N+](=O)[O-])o1 [C646] (top concentration 25000 nM) | -2.06 | 1.74 | 4.44 | -0.16 | -2.06 | 15.1 | 11.7 | -2.06 | 3.84 | 5.04 | -2.06 | 0.64 | 4.74 | -2.06 | 5.04 | -2.06 | 0.24 | 1.74 | -0.66 | -2.06 |
| CCN1C(=O)CNc2ncc(-c3ccc(-c4nc[nH]n4)nc3C)nc21 [CC-115] (top concentration 10000 nM) | -5.46 | 0.54 | 0.44 | 3.44 | -1.66 | 5.74 | 11.7 | 7.34 | 1.24 | 2.34 | 2.54 | 2.14 | 4.54 | 1.34 | 4.34 | 1.04 | 3.04 | 2.54 | 2.34 | 1.24 |
| Cc1noc2c1-c1ccccc1C(c1ccc(Cl)cc1)=N[C@H]2CC(N)=O [CPI-0610] (top concentration 10000 nM) | -5.8 | 3.3 | -1.2 | 4.9 | 0 | -5.8 | 10.3 | -4.1 | 0.3 | 5.7 | -2.2 | 3.5 | 8.4 | 1.4 | 7.9 | 4.4 | -2.6 | -2.8 | -1.9 | 5.6 |
| Cc1cc(Nc2ncc(Cl)c(Nc3ccccc3S(=O)(=O)C(C)C)n2)c(OC(C)C)cc1C1CCNCC1 [Ceritinib] (top concentration 2500 nM) | -3.44 | -3.44 | -2.84 | 2.86 | -3.44 | -3.44 | 6.66 | -0.74 | -3.44 | -3.44 | -1.44 | -3.24 | -2.04 | -3.44 | -0.94 | -3.44 | -3.44 | -3.44 | -3.44 | -0.74 |
| Nc1nc(Cl)nc2c1ncn2[C@@H]1O[C@H](CO)[C@@H](O)[C@@H]1F [Clofarabine] (top concentration 10000 nM) | -18.6 | 7.1 | 2.3 | 8.1 | -26.5 | 8.3 | 5.6 | 6.5 | 11.4 | 10.5 | 2.7 | 1.8 | 7.3 | -5.6 | 1.2 | 2.1 | 3.7 | 4.3 | -5.9 | 2.1 |
| CC1(COc2ccc3c(c2)ncn3-c2ccc3cccc(N4CCC(N)CC4)c3n2)COC1 [Crenolanib] (top concentration 10000 nM) | -9.32 | 2.08 | -4.32 | 0.68 | -0.02 | -5.22 | -3.92 | 0.68 | -1.22 | 0.88 | -1.82 | 0.08 | -0.02 | -7.62 | 7.78 | -2.62 | -4.02 | -0.82 | -1.52 | -4.02 |
| Cc1nc(Nc2ncc(C(=O)Nc3c(C)cccc3Cl)s2)cc(N2CCN(CCO)CC2)n1 [Dasatinib] (top concentration 1000 nM) | -2.8 | -0.7 | -2.8 | 16.8 | 10.4 | -2.8 | 9.2 | -2.8 | 4.2 | 30.2 | -2.8 | 10.8 | 3.1 | -2.8 | -0.2 | -1.7 | 1.9 | 17 | 17.2 | 3.3 |
| CCc1cnn2c(NCc3ccc[n+]([O-])c3)cc(N3CCCC[C@H]3CCO)nc12 [Dinaciclib] (top concentration 1000 nM) | -14.3 | 1.26 | -5.84 | 2.86 | -10.8 | -7.74 | 7.16 | -4.04 | -3.24 | -3.64 | -5.74 | -5.94 | 1.26 | -7.04 | -6.64 | -6.44 | -5.84 | -1.54 | -0.24 | -2.04 |
| COc1cccc2c1C(=O)c1c(O)c3c(c(O)c1C2=O)C[C@@](O)(C(=O)CO)C[C@@H]3O[C@H]1C[C@H](N)[C@H](O)[C@H](C)O1 [Doxorubicin] (top concentration 1000 nM) | -7.62 | 15 | 9.28 | 13.1 | 3.18 | 7.68 | 13.4 | 9.08 | 13.8 | 11.4 | 1.38 | 3.08 | 7.48 | -1.82 | -0.12 | 5.08 | 10.5 | 11.3 | -3.62 | 3.38 |
